Measurements published in paper PMC12735718, “Novel Adamantane–Sclareol Hybrids Exploit ROS Vulnerability to Overcome Multidrug-Resistance in Glioblastoma Cells” (Molecules, 2025).

Assays:
[1] = system: ASK1 protein in U87 cells; assay: ASK1 protein expression by flow cytometry, U87; assay type: cell-based, human; conditions: U87, 2 µM and 4 µM, 48 h
Experimental: (§1) Flow cytometry was used to assess TrxR1 and ASK1 protein expression in the U87 and U87-TxR cell lines. Cells were seeded and allowed to attach overnight before exposure to compounds 2 and 5 at final concentrations of 2 μM and 4 μM. After 48 h treatment, cells were collected by trypsinization, rinsed with PBS, and subsequently fixed in 4% PFA for 10 min at room temperature. For permeabilization, ice-cold absolute methanol was added, and the samples were maintained at −20 °C overnight. Following this step, cells were washed in PBS and incubated for 1 h in 0.5% BSA/PBS to block nonspecific binding. Pelleted cells were then resuspended in primary antibodies diluted in 0.5% BSA/PBS [(ASK1, 1:200 (ab45178, Abcam, Cambridge, UK); TrxR1, 1:500 (ab124954, Abcam, Cambridge, UK)] and incubated overnight at +4 °C. Cells were then washed in PBS and incubated for 1 h at room temperature in the dark with fluorescently labeled anti-rabbit IgG secondary antibody (Alexa Fluor 488, ab150097, Abcam, Cambridge, UK), diluted 1:1000 in 0.5% BSA/PBS. Following incubation, samples were washed, resuspended in cold PBS, and analyzed by flow cytometry. A minimum of 10,000 events per sample were acquired, and fluorescence was detected in a green fluorescence channel (525 nm). Data acquisition and processing were performed using CytExpert software (version 2.4.0.28; Beckman Coulter, Indianapolis, IN, USA).

[2] = system: ASK1 protein in U87-TxR cells; assay: ASK1 protein expression by flow cytometry, U87-TxR; assay type: cell-based, human; conditions: 48 h; for ASK1 protein levels: 2 µM and 4 µM
Experimental: as §1

[3] = system: H2O2 and peroxynitrite anion levels in U87 cells; assay: ROS detection by DHR, U87; assay type: cell-based, human; conditions: 4 µM, 24 h and 48 h
Experimental: The levels of ROS were measured in U87 and U87-TxR cells by flow cytometry. The production of superoxide anions was detected using DHE fluorescence dye, while production of H2O2 and peroxynitrite anions was detected using DHR fluorescence dye. Cells were seeded in 6-well plates (150,000 cell/well) and incubated overnight. The cells were then treated with compounds 2 or 5 (4 μM) for 24 h and 48 h. CDDP (10 μM) was used as a positive control. After the treatment period, the cells were stained with DHE or DHR for 30 min in the dark. Following incubation, cells were harvested with trypsinization and washed twice in cold phosphate buffer solution (PBS). Fluorescence was measured on a CytoFlex flow cytometer (Beckman Coulter, Indianapolis, IN, USA). Green fluorescence from the oxidized DHR dye was detected at 525 nm, while the red fluorescence from ethidium derived from DHE was detected at 585 nm. At least 10,000 events were assayed for each sample. The results were analyzed by CytExpert 2.4.0.28 software (Beckman Coulter, Indianapolis, IN, USA).

[4] = Maximum tolerated dose testing; conditions: Rag1-/- (immunodeficient), mouse, in vivo, ip, male Rag1 mice; read-out: maximal tolerated dose (MTD)
Experimental: (§2) Male immunodeficient mice (Rag1^−/−), aged 4–8 weeks, were used for xenograft studies. A total of 1 × 10^6 U87 cells were injected subcutaneously into the rear axillary region to establish solid tumors. […] Maximum tolerated dose (MTD) testing for 5 was performed in 6- to 8-week-old male Rag1 mice using two animals per dose group. Compound 5 was administered i.p. at doses of 7 mg/kg, 12.5 mg/kg, 25 mg/kg, 50 mg/kg, 100 mg/kg, and 200 mg/kg. The carrier consisted of 10% (v/v) DMSO with 5% (v/v) Tween-80 and was diluted in 0.9% (w/v) NaCl. Animals were monitored for weight loss, changes in feeding or neurological signs, and any morbidity to identify the highest non-toxic dose. For efficacy studies, Rag1 mice were inoculated subcutaneously with 1 × 10^6 cells (mean starting weight ≈ 20 g); animals were then randomized into treatment groups. The compound 5 group (n = 5) received 7 mg/kg i.p. (two injections during the study period). Comparator groups included carrier control (n = 5). Compound 5 was formulated in the vehicle described above. The study was terminated when tumors in untreated mice reached approximately 11% of body weight. At termination, animals were euthanized and tumors were excised. Tumor volumes and body weights were recorded throughout the experiment and used to assess efficacy and tolerability.

[5] = system: subcutaneous xenografts of U87 cells; assay: Preliminary efficacy study, subcutaneous U87 xenografts; assay type: in vivo; conditions: 7 mg/kg, administered twice i.p.
Experimental: as §2

[6] = system: A-172 cells; assay: MTT cell viability assay, A-172; assay type: cell-based; conditions: Homo sapiens, 72 h treatment
Experimental: Cell viability was measured using the colorimetric MTT assay based on the reduction of MTT into formazan dye. Cell lines were seeded into 96-well cell culture plates (4000 cells/well) in appropriate medium. After overnight incubation, cells were treated with increasing concentrations of 1, 2, 3, 4, 5, and 6 (0.5, 1, 2, 4, and 8 µM). After 72 h treatment, MTT solution (4 mg/mL) was added and plates were incubated at 37 °C with 5% CO2 for 3 h. After incubation, formazan crystals were dissolved using 100 µL DMSO, resulting in a purple color. The absorbance was measured at 570 nm with a reference wavelength of 690 nm using an automated microplate reader (MultiskanSky, Thermo Scientific, USA). The IC50 values were determined by non-linear regression analysis in GraphPad Prism 8.0.2. software (GraphPad Software, Boston, MA, USA).

[7] = system: TrxR1 protein in U87 cells; assay: TrxR1 protein expression by flow cytometry, U87; assay type: cell-based, human; conditions: U87, 4 µM, 48 h
Experimental: as §1

Structure (SMILES): CC1(C)CCC[C@]2(C)[C@@H](CC[C@@](C)(O)/C=C/c3ccc(CNCCCCCCCCNCC45CC6CC(CC(C6)C4)C5)o3)[C@](C)(O)CC[C@@H]12 [Compound 5]
- ASK1 level [1]: remained unchanged
- ASK1 protein levels [2]: increased
- ASK1 expression ([2]; 4 µM, not statistically significant): slightly increased
- H2O2 and peroxynitrite anion levels (DHR) [3]: slight or no increase
- MTD [4]: 25 mg/kg
- Body weight [5]: not adversely affected
- tumor growth ([5]; over 12 days): strongly inhibits tumor growth
- IC50 [6]: 4.74 ± 0.129 µM

Structure (SMILES): CC1(C)CCC[C@]2(C)[C@@H](CC[C@@](C)(O)/C=C/c3ccc(CNCCCCCCCCNCC45CC6CC(CC(C6)C4)C5)s3)[C@](C)(O)CC[C@@H]12 [Compound 2]
- ASK1 level [1]: remained unchanged
- ASK1 protein levels [2]: increased
- H2O2 and peroxynitrite anion levels (DHR) [3]: slight or no increase
- IC50 [6]: 2.05 ± 0.37 µM
- TrxR1 levels [7]: slight increase
